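How tested: cells in 96-well plates exposed to compound for 48 hours at five concentrations. TGI marks complete inhibition of growth.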
What was measured:
Experiment in all cases: NCI anticancer screen, dose series, 48 h
HCT-15 colon = test system: HCT-15 colon
HOP-62 NSCLC = test system: HOP-62 NSCLC
HS 578T breast = test system: HS 578T breast
M14 melanoma = test system: M14 melanoma
IGROV1 ovarian = test system: IGROV1 ovarian
EKVX NSCLC = test system: EKVX NSCLC
U251 CNS = test system: U251 CNS
HCC-2998 colon = test system: HCC-2998 colon
SNB-75 CNS = test system: SNB-75 CNS
LOX IMVI melanoma = test system: LOX IMVI melanoma
OVCAR-4 ovarian = test system: OVCAR-4 ovarian
MDA-MB-231 breast = test system: MDA-MB-231 breast
SK-MEL-5 melanoma = test system: SK-MEL-5 melanoma
RPMI-8226 leukemia = test system: RPMI-8226 leukemia
SK-MEL-2 melanoma = test system: SK-MEL-2 melanoma
SNB-19 CNS = test system: SNB-19 CNS
HL-60(TB) leukemia = test system: HL-60(TB) leukemia
SR leukemia = test system: SR leukemia
NCI-H460 lung = test system: NCI-H460 lung
SK-OV-3 ovarian = test system: SK-OV-3 ovarian
A498 renal = test system: A498 renal
NCI-H226 lung = test system: NCI-H226 lung
MDA-MB-435 = test system: MDA-MB-435
COLO 205 colon = test system: COLO 205 colon
UACC-257 melanoma = test system: UACC-257 melanoma
HOP-92 NSCLC = test system: HOP-92 NSCLC
HT29 colon = test system: HT29 colon
SF-268 CNS = test system: SF-268 CNS
T-47D breast = test system: T-47D breast
SW-620 colon = test system: SW-620 colon
OVCAR-8 ovarian = test system: OVCAR-8 ovarian
HCT-116 colon = test system: HCT-116 colon
UACC-62 melanoma = test system: UACC-62 melanoma
CCRF-CEM leukemia = test system: CCRF-CEM leukemia
NCI-H23 lung = test system: NCI-H23 lung
K-562 leukemia = test system: K-562 leukemia
NCI/ADR-RES ovarian = test system: NCI/ADR-RES ovarian
A549 NSCLC = test system: A549 NSCLC
DU-145 prostate = test system: DU-145 prostate
MALME-3M melanoma = test system: MALME-3M melanoma
OVCAR-5 ovarian = test system: OVCAR-5 ovarian
786-0 renal = test system: 786-0 renal
KM12 colon = test system: KM12 colon
CAKI-1 renal = test system: CAKI-1 renal
PC-3 prostate = test system: PC-3 prostate
UO-31 renal = test system: UO-31 renal
TK-10 renal = test system: TK-10 renal
OVCAR-3 ovarian = test system: OVCAR-3 ovarian
MOLT-4 leukemia = test system: MOLT-4 leukemia
BT-549 breast = test system: BT-549 breast
SF-295 CNS = test system: SF-295 CNS
SK-MEL-28 melanoma = test system: SK-MEL-28 melanoma

Structure (SMILES): O=S(=O)(NC(c1ccccc1)(c1cc2ccccc2[nH]1)c1cc2ccccc2n1S(=O)(=O)c1ccccc1)c1ccccc1 (configuration not stated)
- TGI (HCT-15 colon): > 100 µM
- TGI (HOP-62 NSCLC): > 100 µM
- TGI (HS 578T breast): > 100 µM
- TGI (M14 melanoma): > 100 µM
- TGI (IGROV1 ovarian): > 100 µM
- TGI (EKVX NSCLC): > 100 µM
- TGI (U251 CNS): > 100 µM
- TGI (HCC-2998 colon): > 100 µM
- TGI (SNB-75 CNS): > 100 µM
- TGI (LOX IMVI melanoma): > 100 µM
- TGI (OVCAR-4 ovarian): > 100 µM
- TGI (MDA-MB-231 breast): > 100 µM
- TGI (SK-MEL-5 melanoma): > 100 µM
- TGI (RPMI-8226 leukemia): > 100 µM
- TGI (SK-MEL-2 melanoma): > 100 µM
- TGI (SNB-19 CNS): > 100 µM
- TGI (HL-60(TB) leukemia): > 100 µM
- TGI (SR leukemia): > 100 µM
- TGI (NCI-H460 lung): > 100 µM
- TGI (SK-OV-3 ovarian): 92.4 µM
- TGI (A498 renal): > 100 µM
- TGI (NCI-H226 lung): > 100 µM
- TGI (MDA-MB-435): > 100 µM
- TGI (COLO 205 colon): > 100 µM
- TGI (UACC-257 melanoma): > 100 µM
- TGI (HOP-92 NSCLC): > 100 µM
- TGI (HT29 colon): > 100 µM
- TGI (SF-268 CNS): > 100 µM
- TGI (T-47D breast): > 100 µM
- TGI (SW-620 colon): > 100 µM
- TGI (OVCAR-8 ovarian): > 100 µM
- TGI (HCT-116 colon): > 100 µM
- TGI (UACC-62 melanoma): > 100 µM
- TGI (CCRF-CEM leukemia): > 100 µM
- TGI (NCI-H23 lung): > 100 µM
- TGI (K-562 leukemia): > 100 µM
- TGI (NCI/ADR-RES ovarian): > 100 µM
- TGI (A549 NSCLC): > 100 µM
- TGI (DU-145 prostate): > 100 µM
- TGI (MALME-3M melanoma): > 100 µM
- TGI (OVCAR-5 ovarian): > 100 µM
- TGI (786-0 renal): > 100 µM
- TGI (KM12 colon): > 100 µM
- TGI (CAKI-1 renal): > 100 µM
- TGI (PC-3 prostate): > 100 µM
- TGI (UO-31 renal): > 100 µM
- TGI (TK-10 renal): > 100 µM
- TGI (OVCAR-3 ovarian): > 100 µM
- TGI (MOLT-4 leukemia): > 100 µM
- TGI (BT-549 breast): > 100 µM
- TGI (SF-295 CNS): > 100 µM
- TGI (SK-MEL-28 melanoma): > 100 µM
